Settings: Liquid, Vibrating tube method

CCCCOCCO [2-butoxyethan-1-ol]
mass density [kg/m3]
Settings | 283.15 K | 293.15 K | 303.15 K | 313.15 K | 323.15 K | 333.15 K | 343.15 K | 353.15 K | 363.15 K
100 kPa | 907.9 | 900.5 | 891.8 | 883.5 | 874 | 865.6 | 856.5 | 847.5 | 838.2
1000 kPa | 908.3 | 900.6 | 892.1 | 884 | 875 | 866.1 | 857.4 | 848.4 | 839.4
3000 kPa | 909.9 | 902.2 | 893.9 | 885.6 | 876.5 | 868 | 859.3 | 850.5 | 841.4
5000 kPa | 911 | 903.2 | 895.4 | 887.1 | 878.1 | 869.5 | 861.1 | 852.2 | 843.4
10000 kPa | 914.2 | 906.8 | 898.9 | 890.7 | 881.9 | 873.5 | 865.1 | 856.7 | 847.9
15000 kPa | 917.1 | 910 | 902 | 894.1 | 885.5 | 877.3 | 869.1 | 860.9 | 852.6
20000 kPa | 920 | 912.9 | 905.5 | 897.3 | 889.1 | 880.9 | 873.2 | 864.8 | 856.4
25000 kPa | 922.8 | 915.9 | 908.7 | 900.7 | 892.1 | 884.4 | 876.5 | 868.7 | 860.4
30000 kPa | 925.6 | 918.8 | 911.8 | 903.6 | 895.4 | 887.6 | 880.1 | 872.3 | 864.4
35000 kPa | 928.4 | 921.4 | 914.5 | 906.7 | 898.5 | 890.8 | 883.5 | 875.9 | 868.1
40000 kPa | 930.9 | 924 | 916.7 | 909.4 | 901.6 | 894 | 886.7 | 879.2 | 871.8
50000 kPa | 935.7 | 929.5 | 921.8 | 915.1 | 907.3 | 900.1 | 893 | 885.6 | 878.4
60000 kPa | 940.5 | 933.9 | 927.1 | 920.1 | 912.9 | 905.7 | 898.6 | 891.8 | 884.8

Reference: the NIST ThermoML archive (doi:10.1021/acs.jced.6b00192)
